In general, IC50 refers to the concentration needed to halve the response being measured.

Bounds are passed on as bounds.

Here are results for one compound from patent US20230149409A1, “TREATMENT OF HUMAN PAPILLOMAVIRUS-ASSOCIATED CANCERS BY PD-L1 INHIBITORS” (priority 2021, published 2023).

For experiment [1], the target named is T1, PD-⅟PD-L1 (recombinant human PD-L1 protein and human PD-1 protein) (Homo sapiens, UniProt Q9NZQ7).
T1 construct: Recombinant human PD-L1 protein (19-238) with a His-tag at the C-terminus; purchased AcroBiosystems PD1-H5229 (PD-L1); PD1-H5257 (PD-1)
The experiment is described as follows: Homogeneous Time-Resolved Fluorescence (HTRF) PD-1/PD-L1 binding assay. The following applies: 3 nM PD1, 10 nM PD-L1, 25° C., PBS pH 7.4.

Experiment [2] concerns select advanced solid tumors (HPV+ carcinomas). The experiment in a line: Phase 1 open-label clinical trial of Compound 24. The format is in vivo, human. Further details: key: complete response (CR); partial response (PR); stable disease (SD); progressive disease (PD). The text has this:
Two open-label, nonrandomized, global multicenter Phase 1 studies in participants with select advanced solid tumors are being conducted for Compounds 24 and 30 in Table 1 supra. In addition to the primary endpoint of determining safety, tolerability, PAD and/or maximum tolerated dose (MTD) of each compound, the studies are exploring preliminary efficacy (complete response (CR), partial response (PR), stable disease (SD), or progressive disease (PD)) in participants with select advanced cancers, including virally mediated tumors such as HPV+ carcinomas. HPV+ tumors can be determined by a local laboratory using p16 IHC, polymerase chain reaction methods, or other locally-available method to detect HPV. Results for patients having solid tumors whose HPV+ status was confirmed, suspected or negative are shown below for Compound 24 and Compound 30 in Tables 4 and 5, respectively.

For experiment [3], the target named is T2, PD-L1 on CD14+ cells in human whole blood (Homo sapiens, UniProt Q9NZQ7).
T2 construct: Cells were gated on CD14+ (BD Biosciences) and PD-L1 expression determined by mean fluorescence intensity; host or cells: CD14+ cells in normal human whole blood, stimulated with human interferon gamma
The experiment is described as follows: PD-L1 whole blood internalization assay. The format is cell-based. The settings on record: 1 ng/mL interferon γ, CD14+ gated, 24 hour. In outline:
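Normal human whole blood exposed to compound concentration range plus 1 ng/mL IFN-γ for 18–20 h at 37 °C, then stained for PD-L1 and CD14, red cells lysed/fixed. PD-L1 MFI measured on CD14+ gated cells by flow cytometry; IC50 from percent inhibition versus log concentration fit.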

T2 sequence (Q9NZQ7 19-290): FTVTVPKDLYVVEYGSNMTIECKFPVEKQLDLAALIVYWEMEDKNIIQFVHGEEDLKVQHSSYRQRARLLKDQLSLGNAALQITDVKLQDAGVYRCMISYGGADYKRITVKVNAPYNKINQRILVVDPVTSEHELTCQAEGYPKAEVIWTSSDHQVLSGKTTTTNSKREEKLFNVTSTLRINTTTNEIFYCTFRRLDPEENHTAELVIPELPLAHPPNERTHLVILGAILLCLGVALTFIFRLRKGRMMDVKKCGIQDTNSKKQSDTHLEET
T1 sequence (Q9NZQ7 19-238): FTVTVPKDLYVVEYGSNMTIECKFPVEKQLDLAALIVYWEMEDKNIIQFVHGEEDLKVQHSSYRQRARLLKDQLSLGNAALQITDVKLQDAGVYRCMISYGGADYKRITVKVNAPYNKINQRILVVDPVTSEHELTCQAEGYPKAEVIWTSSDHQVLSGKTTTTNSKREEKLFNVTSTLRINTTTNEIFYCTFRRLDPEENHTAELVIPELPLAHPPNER

With `Cc1c(Nc2nc(C(F)F)nc3cc(CN4CC[C@@H](O)C4)cnc23)cccc1-c1cccc(-c2nc3cc(CN4CCC(C(=O)O)CC4)cc(C#N)c3o2)c1C` [Compound 24], the IC50 in experiment [1] was under 10 nM; in experiment [3], under 100 nM. Moreover, the “Best Overall Response” value is “SD” in experiment [2] (Patient 1, 200 mg QD, Cervical cancer (AC), HPV/p16 status Not determined); “PD” in experiment [2] (Patient 2, 200 mg BID, Cervical cancer (clear cell), HPV/p16 status Not determined); “SD” in experiment [2] (Patient 3, 400 mg BID, Anal carcinoma, HPV 16 positive); “SD” in experiment [2] (Patient 4, 400 mg BID, Anal carcinoma, HPV 16 positive); “SD” in experiment [2] (Patient 5, 300 mg BID, Vaginal cancer (SCC), HPV 16 positive); “PR” in experiment [2] (Patient 6, 400 mg BID, Cervical cancer (SCC), HPV 16 positive). For the same compound, the “Best Overall Response” value is “PD” in experiment [2] (Patient 7, 200 mg BID, Anal carcinoma (SCC), Positive unknown type); “PD” in experiment [2] (Patient 8, 400 mg BID, Anal carcinoma, HPV 16 positive); “SD” in experiment [2] (Patient 9, 600 mg QD, Anal carcinoma (rectovaginal), HPV 16,33,31 positive); “SD” in experiment [2] (Patient 10, 400 mg BID, Cervical cancer (AC), HPV 16 positive); “PR” in experiment [2] (Patient 11, 400 mg BID, Anal carcinoma (SCC), HPV/p16 status Not determined); “SD” in experiment [2] (Patient 12, 600 mg QD, Anal carcinoma (SCC), HPV/p16 status Not determined). In addition, the “Best Overall Response” value in experiment [2] (Patient 13, 400 mg BID, Rectovaginal septum (SCC), P16+, HPV 16) is on record as “PD”; in experiment [2] (Patient 14, 600 mg QD, Anal carcinoma, HPV 16), “PD”; in experiment [2] (Patient 15, 800 mg QD, Anal carcinoma, HPV 16), “PD”; in experiment [2] (Patient 16, 800 mg QD, Vulvar (SCC), HPV/p16 status Not determined), “PD”; in experiment [2] (Patient 18, 800 mg QD, Cervical cancer (SCC), P16 positive) it was “PD”; in experiment [2] (Patient 19, 800 mg QD, Anal cancer, HPV 16 positive), “PD”. In addition, the “Best Overall Response” value was “PD” in experiment [2] (Patient 20, 800 mg QD, Anal cancer, HPV 16 positive) and “SD” in experiment [2] (Patient 21, 300 mg BID, Anal cancer, HPV 16).
